Legend:
[1] = system: rat dinitrobenzene-induced colitis model; assay: large intestine weight increase of rat dinitrobenzene-induced colitis model; assay type: in vivo; details: Wistar rat, 10 mg/kg oral once a day, day 8; normal group 0.215 ± 0.011, pathology group 0.633 ± 0.041
Method: A dinitrobenzene solution (30 mg/0.1 mL) was injected into the large intestine of anesthetized rats (Wistar, male, 6-week-old). […] On day 8, the large intestine was isolated from euthanized rats, and the wet weight thereof was measured. The large intestine weight was amended to the weight per 100 g body weight of the rats on day 8.

[2] = system: rat adjuvant induced arthritis model; assay: hindpaw edema of rat adjuvant induced arthritis model; assay type: in vivo; details: LEW rat, 10 mg/kg oral once a day day 15 to day 20, difference of hindpaw volume day 15 to day 21; disease group (solvent) 0.63 ± 0.13
Method: Anesthetized rats (LEW, male, 6-week-old) were immunized with M. Butyricum (5 mg/mL) at a dose of 0.1 mL/body by subcutaneous administration from the tail root. […] […] The amount of hindpaw edema was the difference in the amount between hindpaw volume on day 15 and that on day 21.

[3] = system: proMMP-2 production by THP-1 cell; assay: hemostatic type proMMP-2 production by THP-1 cell; assay type: cell-based, human; details: THP-1 cells without stimulation, 24 hr, test compound 2 μM
Method: (§1) THP-1 cell (human monocytic leukemia cell line) was adjusted to 1×10^7 cells/mL in a culture medium (10% fetal bovine serum/RPMI1640 medium), and dispensed to a 96 well multiplate. This was equilibrated under the conditions of 37° C./5% CO2, and a culture medium containing a test compound was added thereto. After incubation under the conditions of 37° C./5% CO2 for 24 hr, the culture medium was centrifuged and the culture supernatant was collected, which was subjected to the following measurement.
Quantification of proMMP-2 in Culture Supernatant
The proMMP-2 concentration of the collected culture supernatant was quantified using a commercially available measurement reagent (manufactured by GE Healthcare, MMP-2, Human, Biotrak ELISA System).
Calculation of proMMP-2 Suppression Rate
The proMMP-2 suppression rate of the test compound was calculated from the following formula: % suppress=100−((Test/Cont)×100). wherein Cont is proMMP-2 concentration of culture supernatant without addition of a test compound (added with solvent alone) and Test is proMMP-2 concentration of culture supernatant with addition of a test compound.

[4] = system: proMMP-9 production by human TNFα stimulated THP-1 cell; assay: proMMP-9 production by human TNFα stimulated THP-1 cell; assay type: cell-based; details: THP-1 cells, human TNFα 10 ng/mL, 24 hr; IC50 from 3 points at 10, 100 and 1,000 nmol/L; read-out: proMMP-9 production suppression (IC50)
Method: as §1, with “containing human TNFα (final concentration 10 ng/mL) and” for “containing”
Quantification of proMMP-9 in Culture Supernatant
The proMMP-9 concentration of the collected culture supernatant was quantified using a commercially available measurement reagent (manufactured by GE Healthcare, MMP-9, Human, Biotrak ELISA System).
Calculation of proMMP-9 Suppression Rate
The proMMP-9 suppression rate of the test compound was calculated from the following formula: % suppression=100−((Test−Min)/(Max−Min)×100) wherein Max is proMMP-9 concentration of culture supernatant induced by stimulation with human TNFα, without addition of a test compound (added with solvent alone) Min is proMMP-9 concentration of culture supernatant without addition of a test compound (added with solvent alone) and without stimulation with human TNFα, and Test is proMMP-9 concentration of culture supernatant induced by stimulation with human TNFα when a test compound is added.
Furthermore, the concentration of the test compound necessary for suppressing proMMP-9 production by human TNFα stimulated THP-1 cell by 50% ([…]) was calculated from 3 points of proMMP-9 suppression rate at test compound concentrations of 10, 100 and 1,000 nmol/L.

[5] = system: rat monoiodoacetic acid-induced osteoarthritis model; assay: articular joints injury of rat monoiodoacetic acid-induced osteoarthritis model; assay type: in vivo; details: LEW rat, 10 mg/kg oral once a day to day 6, scored on day 7; disease group (solvent) 5.8 ± 0.2
Method: Monoiodoacetic acid solution (0.3 mg/25 μL) was injected into the right hindpaw knee joint cavity of anesthetized rats (LEW, male, 7-week-old). A test compound was orally administered once a day from immediately after monoiodoacetic acid injection to day 6 at a dose of 10 mg/kg. On day 7, right hindpaw knee joint was taken from euthanized rats, and fixed with 10% neutral formalin solution. A pathology specimen of knee joint was prepared, stained with Hematoxylin Eosin and Safranine O, and the state of joint cartilage injury was scored under microscopic observation. For articular joint injury scores, changes in each pathological finding in medial condyle of femur and medial condyle of tibia (cartilage surface tuberosity, erosion/ulcer/fibrillation, chondrocyte disorganization/disappearance/hypertrophy, reduction of Safranine staining) were divided into mild, moderate and severe according to the method of Kobayashi et al. (Kobayashi K et al. J. Vet. Med. Sci. 65, 1195 1199 2003), and indicated in the scores of 1, 2 and 3 and totaled. Furthermore, an average of the score of medial condyle of femur and that of medial condyle of tibia was determined and used as an articular joint injury score.

| Compound | IC50 [4] [nM] | also measured |
| --- | --- | --- |
| Cc1ccc(N2CCN(C(=O)c3ccc(N4CCCS4(=O)=O)cc3S(C)(=O)=O)CC2)c(C)c1 [Example 11, [4-(2,4-dimethylphenyl)piperazin-1-yl][4-(1,1-dioxo-1λ^6-isothiazolidin-2-yl)-2-methanesulfonylphenyl]methanone] | – | large intestine weight (g/100 g body weight) [1]: 0.509 ± 0.051 g/100 g body weight; hindpaw edema volume of compound administration group [2]: 0.24 ± 0.10 |
| Cc1cnc(N2CCN(C(=O)c3ccc(N4CCCS4(=O)=O)cc3F)CC2)c(C)c1 [Example 130, [4-(3,5-dimethylpyridin-2-yl)piperazin-1-yl][4-(1,1-dioxo-1λ^6-isothiazolidin-2-yl)-2-fluorophenyl]methanone] | 44 | MMP-2 production suppression (% suppression, 2 μM) [3]: 8.0% |
| Cc1cnc(N2CCN(C(=O)c3ccc(N4CCCS4(=O)=O)cc3C)CC2)c(C)c1 [Example 154, [4-(3,5-Dimethylpyridin-2-yl)piperazin-1-yl][4-(1,1-dioxo-1λ^6-isothiazolidin-2-yl)-2-methylphenyl]methanone] | 82 | MMP-2 production suppression (% suppression, 2 μM) [3]: 13.0%; articular joint injury score of compound administration group [5]: 4.6 ± 0.4 |
| Cc1cc(C2CC2)cnc1N1CCN(C(=O)c2ccc(CN3CCCS3(=O)=O)cc2)CC1 [Example 245, [4-(5-cyclopropyl-3-methylpyridin-2-yl)piperazin-1-yl][4-(1,1-dioxo-1λ^6-isothiazolidin-2-ylmethyl)phenyl]methanone] | 73 | – |
| Cc1cnc(N2CCN(C(=O)c3ccc(N4CCCC4=O)cc3F)CC2)c(C)c1 [Example 282, 1-{4-[4-(3,5-dimethylpyridin-2-yl)piperazine-1-carbonyl]-3-fluorophenyl}pyrrolidin-2-one] | 76 | – |
| Cc1cnc(N2CCN(C(=O)c3ccc(N4CCNC4=O)cc3F)CC2)c(C)c1 [Example 416, 1-{4-[4-(3,5-dimethylpyridin-2-yl)piperazine-1-carbonyl]-3-fluorophenyl}imidazolidin-2-one] | 10 | – |
| CC(=O)Nc1ccc(C(=O)N2CCN(c3ccc(C)cc3C)CC2)c(S(C)(=O)=O)c1 [Example 474, N-{4-[4-(2,4-dimethylphenyl)piperazine-1-carbonyl]-3-methanesulfonylphenyl}acetamide] | 36 | – |
| Cc1cnc(N2CCN(C(=O)c3ccc(N(C)S(C)(=O)=O)cc3F)CC2)c(C)c1 [Example 494, N-{4-[4-(3,5-dimethylpyridin-2-yl)piperazine-1-carbonyl]-3-fluorophenyl}-N-methylmethanesulfonamide] | 102 | – |
| Cc1cc(C)c(N2CCN(C(=O)c3ccc(N4C(=O)NC(=O)C4C)nc3)CC2)nc1C (centres unmarked) [Example 549, 5-methyl-1-{5-[4-(3,5,6-trimethylpyridin-2-yl)piperazine-1-carbonyl]pyridin-2-yl}imidazolidine-2,4-dione] | 7 | – |
| Cc1cc(C2CC2)cnc1N1CCN(C(=O)c2cnc(N3C(=O)CCC3C)cn2)CC1 (centres unmarked) [Example 687, 1-{5-[4-(5-cyclopropyl-3-methylpyridin-2-yl)piperazine-1-carbonyl]pyrazin-2-yl}-5-methylpyrrolidin-2-one] | 41 | – |

Source: patent US8816079B2, “Amide derivative and use thereof as medicine” (Mitsubishi Tanabe Pharma Corporation, priority 2010, dated 2014)
